From PMC9181543, “Lysosomal Exocytosis of Olivacine on the Way to Explain Drug Resistance in Cancer Cells” (International Journal of Molecular Sciences, 2022)

How the values were obtained:
LoVo cells = test: MTT assay (mitochondrial activity), LoVo; format: cell-based; conditions: Homo sapiens
Procedure: (§1) The anticancer activity of tested compounds was assessed on five human cell lines selected from the panel of tumor cell lines recommended by the National Cancer Institute: A495 (lung carcinoma), CCRF/CEM (acute lymphoblastic leukemia), LoVo and LoVo/DX (two types of colorectal: non-resistant and resistant to doxorubicin), and MCF-7 (breast adenocarcinoma). In addition, the NHDF cell line (normal human dermal fibroblasts) was used to estimate cytotoxicity to noncancer cells. The A549, CCRF/CEM, LoVo, LoVo/DX, and MCF-7 cells were obtained from ECACC, and NHDF cells from LONZA, Belgium. The A549 and MCF-7 cells were grown in EMEM medium, CCRF/CEM cells in RPMI-1640, LoVo and LoVo/DX cells in DMEM/F-12, and NHDF cells in DMEM without phenol red. The cells were seeded in […] in the biological assay, as recommended by the National Cancer Institute. All culture media were supplemented with L-glutamine, penicillin, streptomycin, and 10% fetal bovine serum (FBS). Cells were incubated at 37 °C and 5% CO2. An assessment of the mitochondrial cell activity after applying tested compounds was carried out using the test MTT assay, recommended in the ISO 10993-5:2009 standard. As in the SRB assay, the cells were exposed to tested compounds after 24 h of initial incubation in 96-well plates. The MTT solution (1 mg/mL) was added to each well, and cells were incubated for 2 h. Finally, the supernatant was removed, and the formazan crystals were dissolved in isopropanol. After 30 min, absorbance at 570 nm in Victor2 microplate reader (PerkinElmer). Cell viability was determined as the IC50 ratio, i.e., the concentration of the compound in which the viability was reduced by half compared with the control.

NHDF cells [1] = test: SRB assay (total protein content), NHDF; format: cell-based; conditions: Homo sapiens, NHDF normal cells, 48 h incubation
Procedure: (§2) The anticancer activity of tested compounds was assessed on five human cell lines selected from the panel of tumor cell lines recommended by the National Cancer Institute: A495 (lung carcinoma), CCRF/CEM (acute lymphoblastic leukemia), LoVo and LoVo/DX (two types of colorectal: non-resistant and resistant to doxorubicin), and MCF-7 (breast adenocarcinoma). In addition, the NHDF cell line (normal human dermal fibroblasts) was used to estimate cytotoxicity to noncancer cells. The A549, CCRF/CEM, LoVo, LoVo/DX, and MCF-7 cells were obtained from ECACC, and NHDF cells from LONZA, Belgium. The A549 and MCF-7 cells were grown in EMEM medium, CCRF/CEM cells in RPMI-1640, LoVo and LoVo/DX cells in DMEM/F-12, and NHDF cells in DMEM without phenol red. The cells were seeded in […] in the biological assay, as recommended by the National Cancer Institute. All culture media were supplemented with L-glutamine, penicillin, streptomycin, and 10% fetal bovine serum (FBS). Cells were incubated at 37 °C and 5% CO2. One of the most popular in vitro tests to evaluate the activity of compounds with potential antitumor activity is the SRB assay. The sulforhodamine B dye is used, which binds to the protein at the appropriate pH. The assay allows for assessing cell mass and, indirectly, their proliferation. The advantage of the assay is that it measures cellular protein content and not the activity of any enzymes. The SRB assay was carried out according to the National Cancer Institute procedure. Cells were incubated in a culture medium for 24 h in 96-well plates. After 24 h, the control plate for each cell line was fixed with TCA to evaluate cell culture before treatment with tested compounds. […] Cell cultures were then fixed by adding 50% TCA at 4 °C for 1 h. After removing the supernatant, the plates were washed with water and dried. […] Growth inhibition was calculated following the NCI guidelines and expressed as the GI50 ratio, i.e., the concentration of the compound in which the amount of protein was reduced by half compared with the control.

NHDF cells [2] = test: MTT assay (mitochondrial activity), NHDF; format: cell-based; conditions: Homo sapiens, NHDF normal cells
Procedure: as §1

MCF-7 cells [3] = test: MTT assay (mitochondrial activity), MCF-7; format: cell-based; conditions: Homo sapiens, MCF7
Procedure: as §1

MCF-7 cells [4] = test: SRB assay (total protein content), MCF-7; format: cell-based; conditions: Homo sapiens, MCF7, 48 h incubation
Procedure: as §2

A549 cells [5] = test: Proton pump blocking test (omeprazole) for lysosomal exocytosis; format: cell-based, human; conditions: for intracellular localisation: LysoTracker staining
Procedure: To assess whether the exocytosis of olivacine and ellipticine from cancer cells is lysosomal, a proton pump blocking test was performed. Omeprazole was added into A549 cells at a concentration of 200 µM for 1 h. The cell culture was then washed twice with PBS, and the cells were treated with tested compounds. The cell culture was assessed using an Evos FL microscope. The lysosomes were stained using LysoTracker™ Deep Red kit (L12492; Invitrogen). Cultured cells were evaluated using an Evos FL microscope, taking photos every 15 min. After treatment with olivacine or olivacine and omeprazole, analysis of mean cell fluorescence was performed from five independent replicates. In addition, 14 pictures were taken from each replicate, and 100 cells were analyzed by photomicrography using the ImageJ platform.

CCRF/CEM cells [6] = test: SRB assay (total protein content), CCRF/CEM; format: cell-based; conditions: Homo sapiens, 48 h incubation
Procedure: as §2

CCRF/CEM cells [7] = test: Evaluation of the cell cycle (Tali Cell Cycle Kit); format: cell-based, human; conditions: for cell cycle effect: after exposure
Procedure: It is expected that tested compounds affect cell division processes (intense in cancer). Therefore, the effect of compounds on the cell cycle was assessed by quantifying the content of cellular DNA in CCRF/CEM cells with Tali Cell Cycle Kit (Invitrogen). Cells were prepared by 24 h initial incubation in RPMI-1640 medium followed by the addition of tested compounds for a further 24 h. Subsequently, cells were harvested, centrifuged, washed, dissolved in PBS, and centrifuged again. After removing PBS, the cells were resuspended in Tali Cell Cycle Solution and incubated for 20 min in the dark at RT. Finally, the cells were transferred to the Tali Cellular Analysis Slides and analyzed using an image-based cytometer Arthur (NanoEnTek Inc.).

LoVo/DX cells [8] = test: SRB assay (total protein content), LoVo/DX; format: cell-based; conditions: Homo sapiens, LoVo/DX cells (doxorubicin-resistant), 48 h incubation
Procedure: as §2

CCRF/CEM cells [9] = test: MTT assay (mitochondrial activity), CCRF/CEM; format: cell-based; conditions: Homo sapiens
Procedure: as §1

A549 cells [10] = test: MTT assay (mitochondrial activity), A549; format: cell-based; conditions: Homo sapiens
Procedure: as §1

LoVo/DX cells [11] = test: MTT assay (mitochondrial activity), LoVo/DX; format: cell-based; conditions: Homo sapiens, LoVo/DX cells (doxorubicin-resistant)
Procedure: as §1

[12] = 1 h pre-incubation with 200 µM omeprazole, compound 10 µM

SMILES	IC50 (LoVo cells) [µM]	GI50 (NHDF cells [1]) [µM]	IC50 (NHDF cells [2]) [µM]	IC50 (MCF-7 cells [3]) [µM]	GI50 (MCF-7 cells [4]) [µM]	time after which exocytosis was observed after omeprazole (A549 cells [5]; [12]) [h]	GI50 (CCRF/CEM cells [6]) [µM]	cell cycle effect (CCRF/CEM cells [7])	GI50 (LoVo/DX cells [8]) [µM]	IC50 (CCRF/CEM cells [9]) [µM]	IC50 (A549 cells [10]) [µM]	IC50 (LoVo/DX cells [11]) [µM]	duration of blockage of exocytosis after omeprazole (A549 cells [5]; [12])	intracellular localisation (A549 cells [5]; with omeprazole)	intracellular localisation (A549 cells [5]; without omeprazole)	cell cycle inhibition at lower concentrations (CCRF/CEM cells [7]; 0.2 µM and 0.5 µM)
Cc1c2ccncc2c(C)c2c1[nH]c1ccccc12 [Ellipticine]	3.27 ± 0.83	4.44 ± 0.74	8.98 ± 1.44	4.67 ± 0.53	1.25 ± 0.77	> 3	0.77 ± 0.17	blockade of the cell cycle in the G0/G1 phase	0.75 ± 0.22	5.86 ± 0.51	12.9 ± 2.36	15.1 ± 1.73	–	–	–	–
Cc1nccc2c(C)c3[nH]c4ccccc4c3cc12 [Olivacine, 1,5-dimethyl-6H-pyrido[4,3-b]carbazole]	12.7 ± 1.08	14.8 ± 3.77	15.3 ± 1.95	18.5 ± 2.41	0.75 ± 0.07	–	0.81 ± 0.14	blockade of the cell cycle in the G0/G1 phase	0.82 ± 0.08	11 ± 3.3	17.8 ± 7.82	26.3 ± 4.64	at least 3 h	in the cytoplasm and not in the lysosomes	accumulation of olivacine in the lysosomes	No cell cycle inhibition
